{"source": "PubChem BioAssay (NCI)", "note": "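Following 48 hours of exposure in 96-well plates, responses at five concentrations were used to interpolate endpoints linearly. GI50 marks 50% less growth. TGI: total growth inhibition.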", "data": [{"tested_on": "BT-549 breast", "test": "NCI anticancer screen, dose series, 48 h", "units": {"TGI": "µM", "GI50": "µM"}, "values": [{"smiles": "C[C@]12CC[C@H]3[C@@H](CCC4=CC(=O)CC[C@@H]43)[C@@H]1CC[C@]2(O)C(N)=O", "TGI": "> 100"}, {"smiles": "COC(=O)C1C2OC(C)(C)OC2CN1S(=O)(=O)c1ccc(C)cc1", "note": "(configuration not stated)", "TGI": "> 100"}, {"smiles": "[O-][n+]1nc(N2CCOCC2)nc2ccccc21", "TGI": "> 100"}, {"smiles": "O=C1CSC(c2ccccc2)N1c1nc2cc3sc(N4C(=O)CSC4c4ccccc4)nc3cc2s1", "note": "(configuration not stated)", "TGI": "> 100"}, {"smiles": "Cc1sc2nc(N(C)C)oc(=O)c2c1C", "TGI": 49.1}, {"smiles": "Cc1nc(N)c(N2CCN(S(N)(=O)=O)CC2)c(=O)[nH]1", "TGI": "> 100"}, {"smiles": "CC(C)OC(=O)c1ccc(NCC2=CC(=O)C=CC2=O)cc1", "TGI": 26.1}, {"smiles": "CC(C)C[C@H]1[C@@H](OCc2ccccc2)COS(=O)(=O)N1[C@H](C)c1ccccc1", "TGI": "> 100"}, {"smiles": "CN1CCC23c4c5ccc(Oc6nnnn6-c6ccccc6)c4OC2c2[nH]c4ccccc4c2CC3(O)C1C5", "note": "(configuration not stated)", "TGI": 36.7}, {"smiles": "COC(=O)c1ccccc1/C=C1\\Cc2c(C)c3c(c(C)c2C1=O)CCC3", "TGI": "> 100"}, {"smiles": "O=C1c2ccccc2-c2nnc(-c3ccc([N+](=O)[O-])cc3)cc21", "TGI": "> 10"}, {"smiles": "Cn1c(-c2cccs2)cc(-c2cccs2)c1-c1cccs1", "TGI": "> 100"}, {"smiles": "COc1cc2c(/C=C3/C(=O)Nc4ccc(O)cc43)c(Cl)n(Cc3ccccc3)c2cc1C", "GI50": 4.67, "TGI": 24.6}, {"smiles": "CCSc1nnc(Sc2c3ccccc3nc3ccccc23)s1", "TGI": 31.7}, {"smiles": "O=C(CC(O)(C(F)(F)F)C(F)(F)F)C(c1ccccc1)C(O)(C(F)(F)F)C(F)(F)F", "note": "(configuration not stated)", "TGI": "> 100"}, {"smiles": "CCOC(=O)CC[C@H](N)C(=O)N[C@@H](Cc1ccc(N(CCCl)CCCl)cc1)C(=O)OCC", "TGI": 22.3}, {"smiles": "CC(C)CCCC(C)[C@H]1CC[C@H]2n3c(nnc3-c3ccccc3)CCC[C@]12C", "note": "(some centres not stated)", "TGI": 41.7}, {"smiles": "O=C(CSc1ncccn1)N/N=C/c1ccccc1OCc1ccccc1", "TGI": 70.4}, {"smiles": "CN1CCCC2C(c3ccccc3)C(C3=NCCCC3)C(c3ccccc3)CC21", "note": "(configuration not stated)", "TGI": "> 100"}]}, {"tested_on": "HCC-2998 colon", "test": "NCI anticancer screen, dose series, 48 h", "units": {"TGI": "µM", "GI50": "µM"}, "values": [{"smiles": "C[C@]12CC[C@H]3[C@@H](CCC4=CC(=O)CC[C@@H]43)[C@@H]1CC[C@]2(O)C(N)=O", "TGI": "> 100"}, {"smiles": "COC(=O)C1C2OC(C)(C)OC2CN1S(=O)(=O)c1ccc(C)cc1", "note": "(configuration not stated)", "TGI": "> 100"}, {"smiles": "[O-][n+]1nc(N2CCOCC2)nc2ccccc21", "TGI": "> 100"}, {"smiles": "O=C1CSC(c2ccccc2)N1c1nc2cc3sc(N4C(=O)CSC4c4ccccc4)nc3cc2s1", "note": "(configuration not stated)", "TGI": "> 100"}, {"smiles": "Cc1sc2nc(N(C)C)oc(=O)c2c1C", "TGI": "> 100"}, {"smiles": "Cc1nc(N)c(N2CCN(S(N)(=O)=O)CC2)c(=O)[nH]1", "TGI": "> 100"}, {"smiles": "CC(C)OC(=O)c1ccc(NCC2=CC(=O)C=CC2=O)cc1", "TGI": 38.2}, {"smiles": "CC(C)C[C@H]1[C@@H](OCc2ccccc2)COS(=O)(=O)N1[C@H](C)c1ccccc1", "TGI": "> 100"}, {"smiles": "CN1CCC23c4c5ccc(Oc6nnnn6-c6ccccc6)c4OC2c2[nH]c4ccccc4c2CC3(O)C1C5", "note": "(configuration not stated)", "TGI": 3.3}, {"smiles": "COC(=O)c1ccccc1/C=C1\\Cc2c(C)c3c(c(C)c2C1=O)CCC3", "TGI": "> 100"}, {"smiles": "O=C1c2ccccc2-c2nnc(-c3ccc([N+](=O)[O-])cc3)cc21", "TGI": "> 10"}, {"smiles": "Cn1c(-c2cccs2)cc(-c2cccs2)c1-c1cccs1", "TGI": "> 100"}, {"smiles": "COc1cc2c(/C=C3/C(=O)Nc4ccc(O)cc43)c(Cl)n(Cc3ccccc3)c2cc1C", "GI50": 0.201, "TGI": 0.799}, {"smiles": "CCSc1nnc(Sc2c3ccccc3nc3ccccc23)s1", "TGI": 25.3}, {"smiles": "O=C(CC(O)(C(F)(F)F)C(F)(F)F)C(c1ccccc1)C(O)(C(F)(F)F)C(F)(F)F", "note": "(configuration not stated)", "TGI": "> 100"}, {"smiles": "CCOC(=O)CC[C@H](N)C(=O)N[C@@H](Cc1ccc(N(CCCl)CCCl)cc1)C(=O)OCC", "TGI": 2.59}, {"smiles": "CC(C)CCCC(C)[C@H]1CC[C@H]2n3c(nnc3-c3ccccc3)CCC[C@]12C", "note": "(some centres not stated)", "TGI": 0.0669}, {"smiles": "O=C(CSc1ncccn1)N/N=C/c1ccccc1OCc1ccccc1", "TGI": 95.1}, {"smiles": "CN1CCCC2C(c3ccccc3)C(C3=NCCCC3)C(c3ccccc3)CC21", "note": "(configuration not stated)", "TGI": 31.4}]}, {"tested_on": "UACC-257 melanoma", "test": "NCI anticancer screen, dose series, 48 h", "units": {"TGI": "µM"}, "values": [{"smiles": "C[C@]12CC[C@H]3[C@@H](CCC4=CC(=O)CC[C@@H]43)[C@@H]1CC[C@]2(O)C(N)=O", "TGI": "> 100"}, {"smiles": "COC(=O)C1C2OC(C)(C)OC2CN1S(=O)(=O)c1ccc(C)cc1", "note": "(configuration not stated)", "TGI": "> 100"}, {"smiles": "[O-][n+]1nc(N2CCOCC2)nc2ccccc21", "TGI": "> 100"}, {"smiles": "O=C1CSC(c2ccccc2)N1c1nc2cc3sc(N4C(=O)CSC4c4ccccc4)nc3cc2s1", "note": "(configuration not stated)", "TGI": "> 100"}, {"smiles": "Cc1sc2nc(N(C)C)oc(=O)c2c1C", "TGI": "> 100"}, {"smiles": "Cc1nc(N)c(N2CCN(S(N)(=O)=O)CC2)c(=O)[nH]1", "TGI": "> 100"}, {"smiles": "CC(C)OC(=O)c1ccc(NCC2=CC(=O)C=CC2=O)cc1", "TGI": 27.2}, {"smiles": "CC(C)C[C@H]1[C@@H](OCc2ccccc2)COS(=O)(=O)N1[C@H](C)c1ccccc1", "TGI": "> 100"}, {"smiles": "CN1CCC23c4c5ccc(Oc6nnnn6-c6ccccc6)c4OC2c2[nH]c4ccccc4c2CC3(O)C1C5", "note": "(configuration not stated)", "TGI": 3.32}, {"smiles": "COC(=O)c1ccccc1/C=C1\\Cc2c(C)c3c(c(C)c2C1=O)CCC3", "TGI": "> 100"}, {"smiles": "O=C1c2ccccc2-c2nnc(-c3ccc([N+](=O)[O-])cc3)cc21", "TGI": "> 10"}, {"smiles": "Cn1c(-c2cccs2)cc(-c2cccs2)c1-c1cccs1", "TGI": "> 100"}, {"smiles": "COc1cc2c(/C=C3/C(=O)Nc4ccc(O)cc43)c(Cl)n(Cc3ccccc3)c2cc1C", "TGI": "> 56.5"}, {"smiles": "CCSc1nnc(Sc2c3ccccc3nc3ccccc23)s1", "TGI": 23.6}, {"smiles": "O=C(CC(O)(C(F)(F)F)C(F)(F)F)C(c1ccccc1)C(O)(C(F)(F)F)C(F)(F)F", "note": "(configuration not stated)", "TGI": "> 100"}, {"smiles": "CCOC(=O)CC[C@H](N)C(=O)N[C@@H](Cc1ccc(N(CCCl)CCCl)cc1)C(=O)OCC", "TGI": 5.09}, {"smiles": "CC(C)CCCC(C)[C@H]1CC[C@H]2n3c(nnc3-c3ccccc3)CCC[C@]12C", "note": "(some centres not stated)", "TGI": 26.9}, {"smiles": "O=C(CSc1ncccn1)N/N=C/c1ccccc1OCc1ccccc1", "TGI": 53.5}, {"smiles": "CN1CCCC2C(c3ccccc3)C(C3=NCCCC3)C(c3ccccc3)CC21", "note": "(configuration not stated)", "TGI": 35}]}, {"tested_on": "MOLT-4 leukemia", "test": "NCI anticancer screen, dose series, 48 h", "units": {"TGI": "µM"}, "values": [{"smiles": "C[C@]12CC[C@H]3[C@@H](CCC4=CC(=O)CC[C@@H]43)[C@@H]1CC[C@]2(O)C(N)=O", "TGI": "> 100"}, {"smiles": "COC(=O)C1C2OC(C)(C)OC2CN1S(=O)(=O)c1ccc(C)cc1", "note": "(configuration not stated)", "TGI": "> 100"}, {"smiles": "[O-][n+]1nc(N2CCOCC2)nc2ccccc21", "TGI": "> 100"}, {"smiles": "O=C1CSC(c2ccccc2)N1c1nc2cc3sc(N4C(=O)CSC4c4ccccc4)nc3cc2s1", "note": "(configuration not stated)", "TGI": "> 100"}, {"smiles": "Cc1sc2nc(N(C)C)oc(=O)c2c1C", "TGI": "> 100"}, {"smiles": "Cc1nc(N)c(N2CCN(S(N)(=O)=O)CC2)c(=O)[nH]1", "TGI": "> 100"}, {"smiles": "CC(C)OC(=O)c1ccc(NCC2=CC(=O)C=CC2=O)cc1", "TGI": 6.14}, {"smiles": "CC(C)C[C@H]1[C@@H](OCc2ccccc2)COS(=O)(=O)N1[C@H](C)c1ccccc1", "TGI": "> 74.7"}, {"smiles": "CN1CCC23c4c5ccc(Oc6nnnn6-c6ccccc6)c4OC2c2[nH]c4ccccc4c2CC3(O)C1C5", "note": "(configuration not stated)", "TGI": 5.33}, {"smiles": "COC(=O)c1ccccc1/C=C1\\Cc2c(C)c3c(c(C)c2C1=O)CCC3", "TGI": "> 100"}, {"smiles": "O=C1c2ccccc2-c2nnc(-c3ccc([N+](=O)[O-])cc3)cc21", "TGI": "> 10"}, {"smiles": "Cn1c(-c2cccs2)cc(-c2cccs2)c1-c1cccs1", "TGI": "> 100"}, {"smiles": "COc1cc2c(/C=C3/C(=O)Nc4ccc(O)cc43)c(Cl)n(Cc3ccccc3)c2cc1C", "TGI": "> 100"}, {"smiles": "CCSc1nnc(Sc2c3ccccc3nc3ccccc23)s1", "TGI": 6.25}, {"smiles": "O=C(CC(O)(C(F)(F)F)C(F)(F)F)C(c1ccccc1)C(O)(C(F)(F)F)C(F)(F)F", "note": "(configuration not stated)", "TGI": "> 100"}, {"smiles": "CCOC(=O)CC[C@H](N)C(=O)N[C@@H](Cc1ccc(N(CCCl)CCCl)cc1)C(=O)OCC", "TGI": 3.61}, {"smiles": "CC(C)CCCC(C)[C@H]1CC[C@H]2n3c(nnc3-c3ccccc3)CCC[C@]12C", "note": "(some centres not stated)", "TGI": 13.2}, {"smiles": "O=C(CSc1ncccn1)N/N=C/c1ccccc1OCc1ccccc1", "TGI": 65.8}]}]}
